Read-outs that look alike come from different tables or passages of the source.
Experiments:
Format in all cases: biochemical
human Src enzyme = biological target: T1, human Src enzyme (Homo sapiens, UniProt P12931); test: Src enzyme inhibitory activity (time-resolved fluorometry, biotinylated peptide phosphorylation); details: read-out: SRC_IC50
T1 construct: purchased Carna Biosciences, Inc. 08-173
Procedure, shortened: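 Compounds were tested for blocking tyrosine phosphorylation of a biotinylated peptide substrate by recombinant human Src. Phosphorylated product was quantified by time-resolved fluorometry using europium cryptate and XL665 conjugates, and IC50 was calculated against the compound-free control.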

human Yes1 enzyme = biological target: T2, human Yes1 enzyme (Homo sapiens, UniProt P07947); test: Yes1 enzyme inhibitory activity (time-resolved fluorometry, biotinylated peptide phosphorylation); details: read-out: YES_IC50
T2 construct: made in house
T2 sequence (P07947 whole entry): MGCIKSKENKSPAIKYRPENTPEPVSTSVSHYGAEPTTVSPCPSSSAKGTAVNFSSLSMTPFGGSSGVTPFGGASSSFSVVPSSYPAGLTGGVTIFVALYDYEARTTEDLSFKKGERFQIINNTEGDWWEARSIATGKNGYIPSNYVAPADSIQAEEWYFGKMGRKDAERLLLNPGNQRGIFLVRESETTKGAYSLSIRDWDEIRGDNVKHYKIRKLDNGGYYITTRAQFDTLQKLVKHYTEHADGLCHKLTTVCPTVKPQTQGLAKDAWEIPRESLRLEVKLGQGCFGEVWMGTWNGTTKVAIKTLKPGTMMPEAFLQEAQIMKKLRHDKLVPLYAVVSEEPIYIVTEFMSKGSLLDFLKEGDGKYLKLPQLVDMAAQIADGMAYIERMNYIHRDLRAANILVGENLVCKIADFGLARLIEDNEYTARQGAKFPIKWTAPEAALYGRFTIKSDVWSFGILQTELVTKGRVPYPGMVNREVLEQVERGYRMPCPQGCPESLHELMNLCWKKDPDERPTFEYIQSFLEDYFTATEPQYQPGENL
Procedure, shortened: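 Inhibition was expressed against a compound-free control to give IC50, using TR-FRET read-out (Eu-cryptate anti-pTyr antibody, streptavidin-XL665).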

human Lck enzyme = biological target: T3, human Lck enzyme (Homo sapiens, UniProt P06239); test: Lck enzyme inhibitory activity (time-resolved fluorometry, biotinylated peptide phosphorylation); details: read-out: LCK_IC50
T3 construct: purchased Carna Biosciences, Inc. 08-170
T3 sequence (P06239 whole entry): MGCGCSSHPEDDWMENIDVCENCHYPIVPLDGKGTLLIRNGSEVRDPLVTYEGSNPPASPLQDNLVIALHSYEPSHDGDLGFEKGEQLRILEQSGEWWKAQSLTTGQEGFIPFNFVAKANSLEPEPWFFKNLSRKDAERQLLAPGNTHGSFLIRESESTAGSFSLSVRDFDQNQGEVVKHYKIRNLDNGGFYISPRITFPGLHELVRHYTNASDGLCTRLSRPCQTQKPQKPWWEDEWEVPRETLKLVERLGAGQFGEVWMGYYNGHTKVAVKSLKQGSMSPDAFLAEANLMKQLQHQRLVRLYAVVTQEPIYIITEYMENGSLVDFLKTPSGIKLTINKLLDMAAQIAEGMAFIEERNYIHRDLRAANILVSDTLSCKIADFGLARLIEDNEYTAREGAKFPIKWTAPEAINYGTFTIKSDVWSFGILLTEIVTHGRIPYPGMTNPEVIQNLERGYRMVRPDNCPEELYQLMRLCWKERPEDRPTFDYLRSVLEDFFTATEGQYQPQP
Procedure, shortened: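 Readout pairs a europium cryptate-labelled anti-phosphotyrosine antibody with XL665-streptavidin, measured by time-resolved fluorescence. IC50 derived from percent inhibition against untreated controls.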

[1] = biotinylated peptide phosphorylation

T1 sequence (P12931 whole entry): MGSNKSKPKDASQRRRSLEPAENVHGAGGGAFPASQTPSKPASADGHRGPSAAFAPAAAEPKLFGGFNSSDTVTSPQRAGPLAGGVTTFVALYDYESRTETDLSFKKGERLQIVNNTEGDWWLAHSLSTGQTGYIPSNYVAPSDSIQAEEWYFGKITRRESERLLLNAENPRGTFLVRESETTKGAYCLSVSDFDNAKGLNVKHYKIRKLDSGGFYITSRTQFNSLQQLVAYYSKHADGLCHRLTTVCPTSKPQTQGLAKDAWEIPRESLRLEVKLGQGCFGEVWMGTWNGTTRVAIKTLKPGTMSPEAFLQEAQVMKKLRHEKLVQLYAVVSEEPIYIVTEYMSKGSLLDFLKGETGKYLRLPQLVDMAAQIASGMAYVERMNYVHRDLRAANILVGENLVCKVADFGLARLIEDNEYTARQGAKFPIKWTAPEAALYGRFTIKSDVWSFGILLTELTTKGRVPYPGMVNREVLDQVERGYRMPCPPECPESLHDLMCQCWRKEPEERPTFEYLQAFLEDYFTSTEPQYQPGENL

Row | IC50 (human Src enzyme; [1]) [µM] | IC50 (human Yes1 enzyme; [1]) [µM] | IC50 (human Lck enzyme; [1]) [µM] | IC50 (human Src enzyme) [µM] | IC50 (human Yes1 enzyme) [µM] | IC50 (human Lck enzyme) [µM] | Compound
1 | 0.023 | 0.0013 | 0.0037 |  |  |  | Cc1cc(Oc2c(F)cccc2F)ncc1-n1ncc(C(=O)c2cc3cc(F)c(N(C4CCOCC4)S(C)(=O)=O)cc3[nH]2)c1N [Example 4-2-127, N-[2-[5-amino-1-[6-(2,6-difluorophenoxy)-4-methylpyridin-3-yl]pyrazole-4-carbonyl]-5-fluoro-1H-indol-6-yl]-N-(oxan-4-yl)methanesulfonamide]
2 | 0.013 | 0.00066 | 0.0033 |  |  |  | Cc1cc(Oc2ccccc2F)ccc1-n1ncc(C(=O)c2cc3cc(F)c(N4C(=O)[C@@H]5C[C@@H](O)CN5C4=O)cc3[nH]2)c1N [Example 5-1-449, (6R,7aS)-2-[2-[5-amino-1-[4-(2-fluorophenoxy)-2-methylphenyl]pyrazole-4-carbonyl]-5-fluoro-1H-indol-6-yl]-6-hydroxy-5,6,7,7a-tetrahydropyrrolo[1,2-c]imidazole-1,3-dione]
3 |  |  |  | 0.095 | 0.0063 | 0.11 | Cc1cc(Oc2c(F)cccc2F)ncc1-n1ncc(C(=O)c2cc3cc(OC(F)F)c(NS(=O)(=O)C4CCOCC4)cc3[nH]2)c1N [Example 5-1-380, N-[2-[5-amino-1-[6-(2,6-difluorophenoxy)-4-methylpyridin-3-yl]pyrazole-4-carbonyl]-5-(difluoromethoxy)-1H-indol-6-yl]oxane-4-sulfonamide]
4 |  |  |  | 0.079 | 0.001 | 0.011 | Cc1cc(-n2ncc(C(=O)c3cc4cc(OC5CCN(C(C)C)CC5)c(N5CCN(S(C)(=O)=O)CC5)cc4[nH]3)c2N)ccc1Oc1ccccc1F [Example 5-1-176, [5-amino-1-[4-(2-fluorophenoxy)-3-methylphenyl]pyrazol-4-yl]-[6-(4-methylsulfonylpiperazin-1-yl)-5-(1-propan-2-ylpiperidin-4-yl)oxy-1H-indol-2-yl]methanone]
5 | 0.1 | 0.004 | 0.028 |  |  |  | Cc1cc(Oc2c(F)cccc2F)ncc1-n1ncc(C(=O)c2cc3cc(OC(F)F)c(NS(=O)(=O)CCCF)cc3[nH]2)c1N [Example 4-24-012, N-[2-[5-amino-1-[6-(2,6-difluorophenoxy)-4-methylpyridin-3-yl]pyrazole-4-carbonyl]-5-(difluoromethoxy)-1H-indol-6-yl]-3-fluoropropane-1-sulfonamide]
6 | 0.097 | 0.0039 | 0.024 |  |  |  | Cc1cc2cc(C(=O)c3cnn(-c4c(C)cc(Oc5cccc(F)c5F)cc4F)c3N)[nH]c2cc1NS(C)(=O)=O [Example 4-2-056, N-[2-[5-amino-1-[4-(2,3-difluorophenoxy)-2-fluoro-6-methylphenyl]pyrazole-4-carbonyl]-5-methyl-1H-indol-6-yl]methanesulfonamide]
7 |  |  |  | 0.34 | 0.024 | 0.26 | Cc1cc2cc(C(=O)c3cnn(-c4cnc(Oc5ccc(F)cc5)cc4C)c3N)[nH]c2cc1NS(=O)(=O)N1CCOCC1 [Example 5-1-064, N-[2-[5-amino-1-[6-(4-fluorophenoxy)-4-methylpyridin-3-yl]pyrazole-4-carbonyl]-5-methyl-1H-indol-6-yl]morpholine-4-sulfonamide]
8 | 0.75 | 0.0088 | 0.23 |  |  |  | Cc1cc(Oc2c(F)cccc2F)ncc1-n1ncc(C(=O)c2cc3cc(F)c(NS(=O)(=O)c4cccc(Cl)n4)cc3[nH]2)c1N [Example 5-1-528, N-[2-[5-amino-1-[6-(2,6-difluorophenoxy)-4-methylpyridin-3-yl]pyrazole-4-carbonyl]-5-fluoro-1H-indol-6-yl]-6-chloropyridine-2-sulfonamide]
9 | 0.025 | 0.00064 | 0.0038 |  |  |  | COc1cc2cc(C(=O)c3cnn(-c4ccc(Oc5ccccc5F)cc4C)c3N)[nH]c2cc1NS(=O)(=O)CC(=O)NC(C)C [Example 4-10-011, 2-[[2-[5-amino-1-[4-(2-fluorophenoxy)-2-methylphenyl]pyrazole-4-carbonyl]-5-methoxy-1H-indol-6-yl]sulfamoyl]-N-propan-2-ylacetamide]
10 | 0.091 | 0.0026 | 0.027 |  |  |  | Cc1cc(Oc2c(F)cccc2F)ncc1-n1ncc(C(=O)c2cc3cc(N4CCOCC4)c(NS(C)(=O)=O)cc3[nH]2)c1N [Example 4-24-018, N-[2-[5-amino-1-[6-(2,6-difluorophenoxy)-4-methylpyridin-3-yl]pyrazole-4-carbonyl]-5-morpholin-4-yl-1H-indol-6-yl]methanesulfonamide]
11 | 1.5 | 0.0049 | 0.23 |  |  |  | Cc1cc(Oc2ccccc2F)ccc1-n1ncc(C(=O)c2cc3cc(F)c(NS(=O)(=O)c4cccc(Cl)c4)cc3[nH]2)c1N [Example 5-1-558, N-[2-[5-amino-1-[4-(2-fluorophenoxy)-2-methylphenyl]pyrazole-4-carbonyl]-5-fluoro-1H-indol-6-yl]-3-chlorobenzenesulfonamide]
12 | 0.0081 | 0.00039 | 0.0047 |  |  |  | Cc1cc(Oc2ccccc2F)ccc1-n1ncc(C(=O)c2cc3cc(OCCN4CCOCC4)c(NS(C)(=O)=O)cc3[nH]2)c1N [Example 4-24-034, N-[2-[5-amino-1-[4-(2-fluorophenoxy)-2-methylphenyl]pyrazole-4-carbonyl]-5-(2-morpholin-4-ylethoxy)-1H-indol-6-yl]methanesulfonamide]
13 | 1.3 | 0.017 | 0.37 |  |  |  | Cc1cc(Oc2c(F)cccc2F)ncc1-n1ncc(C(=O)c2cc3cc(F)c(NS(=O)(=O)c4cccc(F)c4)cc3[nH]2)c1N [Example 5-1-553, N-[2-[5-amino-1-[6-(2,6-difluorophenoxy)-4-methylpyridin-3-yl]pyrazole-4-carbonyl]-5-fluoro-1H-indol-6-yl]-3-fluorobenzenesulfonamide]
14 | 0.018 | 0.0032 | 0.0091 |  |  |  | Cc1cc(Oc2ccccc2F)cc(F)c1-n1ncc(C(=O)c2cc3cc(OCC(F)F)c(C4CCN(S(=O)(=O)C5CC5)CC4)cc3[nH]2)c1N [Example 4-17-019, [5-amino-1-[2-fluoro-4-(2-fluorophenoxy)-6-methylphenyl]pyrazol-4-yl]-[6-(1-cyclopropylsulfonylpiperidin-4-yl)-5-(2,2-difluoroethoxy)-1H-indol-2-yl]methanone]
15 |  |  |  | 0.0023 | 0.00032 | 0.0013 | Cc1cc(Oc2ccccc2F)ccc1-n1ncc(C(=O)c2cc3cc(OC4CCN(C(C)C)CC4)c(N4C(=O)NC(C)(C)C4=O)cc3[nH]2)c1N [Example 5-1-193, 3-[2-[5-amino-1-[4-(2-fluorophenoxy)-2-methylphenyl]pyrazole-4-carbonyl]-5-(1-propan-2-ylpiperidin-4-yl)oxy-1H-indol-6-yl]-6,5-dimethylimidazolidine-2,4-dione]
16 | 0.52 | 0.0027 | 0.24 |  |  |  | COc1ccnc(S(=O)(=O)Nc2cc3[nH]c(C(=O)c4cnn(-c5cnc(Oc6c(F)cccc6F)cc5C)c4N)cc3cc2C)c1 [Example 5-1-511, N-[2-[5-amino-1-[6-(2,6-difluorophenoxy)-4-methylpyridin-3-yl]pyrazole-4-carbonyl]-5-methyl-1H-indol-6-yl]-4-methoxypyridine-2-sulfonamide]
17 |  |  |  | 2.9 | 0.018 | 0.72 | Cc1cc(-n2ncc(C(=O)c3cc4cc(OCC(F)F)c(C5CCOCC5)cc4[nH]3)c2N)ccc1Oc1ccccc1F [Example 5-1-258, [5-amino-1-[4-(2-fluorophenoxy)-3-methylphenyl]pyrazol-4-yl]-[5-(2,2-difluoroethoxy)-6-(oxan-4-yl)-1H-indol-2-yl] methanone]

Reference: US10479780B2, “Aminopyrazole derivatives” (Chugai Seiyaku Kabushiki Kaisha, priority 2015, dated 2019)
